Patent US20180147206A1, “ACTIVATION OF NEURONAL STORE-OPERATED CALCIUM ENTRY PATHWAY FOR THE TREATMENT OF ALZHEIMER'S DISEASE” (The Board of Regents of the University of Texas System, priority 2015, published 2018)

Legend:
[1] = system: APPKIGFP and WTGFP mice; assay: Contextual fear conditioning test; assay type: in vivo, mouse; conditions: i.p. 10 mg/kg
[2] = In vitro metabolism in liver S9 fractions; assay type: in vitro ADME, mouse; conditions: phase I cofactors (NADPH regenerating system); 2 μM
Experimental: FIGS. 12A-D. NSN21778 in vitro metabolism stability, in vivo plasma pharmacokinetics, and side effect on body weight (Related to FIGS. 7A-G). (FIG. 12A) The metabolic stability of NSN21778 was evaluated in vitro after incubation with commercial liver S9 fractions in the presence of phase I (NADPH regenerating system) cofactors. Compound levels were determined by LC-MS/MS. Additionally, the stability of NSN21778 in the presence of commercial CD-1 mouse plasma was measured. (FIG. 12B) NSN21778 was dosed i.p. at 10 mg/kg to female CD-1 mice. Levels of NSN21778 in plasma and brain were evaluated by LC-MS/MS. (FIG. 12C) WTGFP, PS1KIGFP and APPKIGFP mice body weight after i.p. administrated with control solution or 10 mg/kg NSN21778 for 10 weeks. Data presented as mean±SE (n=5 mice). (FIG. 12D) Body weight gained for various treatments.
In vitro metabolism assays. Female ICR/CD-1 mouse S9 fractions were purchased from Celsis/In Vitro Technologies (Baltimore, Md.). 25 μl (0.5 mg) of S9 protein was added to a 15 ml glass screw cap tube. […] The supernatant was analyzed by LC-MS/MS. Stability in commercial mouse CD-1 plasma (Bioreclamation, Westbury, N.Y.) was measured in a similar fashion. […] Reactions were quenched with methanol as above and supernatants evaluated by LC-MS/MS. Compound half-life was determined by the method of substrate depletion as described (McNaney et al., 2008).

[3] = system: hippocampal LTP; assay: Hippocampal slice field recordings (LTP); assay type: cell-based, mouse; conditions: pre-treatment 300 nM for 2-3 hours
Experimental: FIGS. 6A-E. NSN21778 rescues mushroom spine and synaptic plasticity defects in AD hippocampal slices. (FIG. 6A) Confocal images of CA1 hippocampal slices from 6 month-old WTGFP, PS1KIGFP, and APPKIGFP mice. The images are shown for untreated slices (CON) and for slices treated with 300 nM NSN21778 (+NSN) for 3.5 hrs prior to fixation. Scale bar is 10 μm. (FIG. 6B) The fraction of mushroom spines in hippocampal CA1 neurons from 6 month-old WTGFP, PS1KIGFP, and APPKIGFP mice. The results are shown for untreated slices (CON) and for slices treated with 300 nM NSN21778 (+NSN). The average fraction of mushroom spines for each group of cells is shown as mean±SE (n≥31 neurons). ***, p <0.001. (FIG. 6C) Sample fEPSP traces are shown for 6 month-old WT and APPKI hippocampal slices prior to stimulation (basal), immediately after tetanus stimulation (induction) and 1 h after tetanus stimulation (after 1 hr). The results are shown for untreated slices and for slices pre-treated with 300 nM NSN21778 (+NSN) for 2-3 hours prior to tetanus stimulation. […]
Hippocampal slice field recordings. […] Field potentials (FPs) were recorded with extracellular recording electrodes (1 MΩ) filled with ACSF and placed in stratum radiatum of area CA1. […] The initial slope of the FPs was used to measure stability of synaptic responses and quantify the magnitude of LTP. […]

Structure (SMILES): CC(=O)Nc1ccc(CCNc2ncnc3ccc(N)cc23)cc1 [NSN21778, N-{4-[2-(6-Amino-quinazolin-4-ylamino)-ethyl]-phenyl}-acetamide]
- toxicity in injected mice (i.p. 10 mg/kg 3 times per week, WTGFP, PS1KIGFP and APPKIGFP mice): not observed any obvious toxicity
- body weight (i.p. 10 mg/kg, following 10 weeks treatment): some weight loss
- contextual fear conditioning phenotype ([1]; 6.5 month-old APPKIGFP mice): fully rescued
- contextual fear conditioning responses ([1]; WTGFP mice, difference to control not statistically significant): somewhat impaired responses
- metabolic stability in liver S9 fractions [2]: generally stable
- LTP defect ([3]; APPKI slices, 6 month-old): completely rescued
- LTP ([3]; wild-type slices): no significant effect
